Series [1] in a line: Solubility of 3-hydroxy-3-methylbutyrate salts and complexes. The class given is physicochemical. From the text: The solubility of various 3-hydroxy-3-methylbutyrate salts and the complexes of Examples was each determined.
Series [2] in a line: Stability (moisture content) at 23° C. and 92.5% humidity. The conditions noted are these: temperature 23° C., humidity 92.5%. Format: physicochemical. As for the experimental part: The stability of various 3-hydroxy-3-methylbutyrate salts and the complexes of the present disclosure was each measured at 23° C. and 92.5% humidity, and the results are shown in Table 7.

`CC(C)(O)CC(=O)[O-].[Na+]` [sodium 3-hydroxy-3-methylbutyrate, reference compound]: in series [1], the Solubility worked out at 72.9 g/100. Besides, the moisture content was found to be 0.32% in series [2] (30 min); 0.65% in series [2] (1 h); 1.07% in series [2] (2 h); 1.98% in series [2] (4 h); 2.32% in series [2] (6 h); 2.58% in series [2] (7 h). The moisture content is reported as 3.13% in series [2] (11 h) and 5.47% in series [2] (22 h).
For the compound “calcium 3-hydroxy-3-methylbutyrate [reference compound]”, the moisture content was found to be 0.19% in series [2] (30 min); 0.38% in series [2] (1 h); 0.63% in series [2] (2 h); 1.16% in series [2] (4 h); 1.36% in series [2] (6 h); 1.51% in series [2] (7 h). Further, the moisture content came to 1.83% in series [2] (11 h) and 3.20% in series [2] (22 h).
For “magnesium 3-hydroxy-3-methylbutyrate [reference compound]”, the Solubility in series [1] is 6 g/100. Further, the moisture content turned out to be 0.11% in series [2] (30 min); 0.23% in series [2] (1 h); 0.38% in series [2] (2 h); 0.70% in series [2] (4 h); 0.81% in series [2] (6 h); 0.91% in series [2] (7 h). The moisture content in series [2] (11 h) is on record as 1.10%; in series [2] (22 h) it was 1.92%.
On to `CC(C)(O)CC(=O)O` [HMB-Ca complex, 3-hydroxy-3-methylbutyric acid·calcium 3-hydroxy-3-methylbutyrate complex], for which, in series [1], the Solubility came out at 32 g/100. In addition, the moisture content is given as 0.14% in series [2] (30 min); 0.29% in series [2] (1 h); 0.47% in series [2] (2 h); 0.87% in series [2] (4 h); 1.02% in series [2] (6 h); 1.13% in series [2] (7 h). In addition, the moisture content is on record as 1.37% in series [2] (11 h) and 2.40% in series [2] (22 h).
On to `CC(C)(O)CC(=O)[O-].[K+]` [potassium 3-hydroxy-3-methylbutyrate, reference compound], for which the Solubility in series [1] came to 101.1 g/100. Moreover, the moisture content in series [2] (30 min) was 0.42%; in series [2] (1 h), 0.85%; in series [2] (2 h) it was 1.39%; in series [2] (4 h), 2.57%; in series [2] (6 h), 3.02%; in series [2] (7 h), 3.35%. Also, the moisture content in series [2] (11 h) is listed as 4.07%; in series [2] (22 h), 7.11%.
As to `CC(C)(O)CC(=O)O` [HMB-Na complex, 3-hydroxy-3-methylbutyric acid·sodium 3-hydroxy-3-methylbutyrate complex], the Solubility in series [1] is 135 g/100. Besides, the moisture content amounted to 0.22% in series [2] (30 min); 0.46% in series [2] (1 h); 0.75% in series [2] (2 h); 1.39% in series [2] (4 h); 1.62% in series [2] (6 h); 1.81% in series [2] (7 h). Besides, the moisture content in series [2] (11 h) came out at 2.19%; in series [2] (22 h) it was 3.83%.
Consider `CC(C)(O)CC(=O)O` [HMB-K complex, 3-hydroxy-3-methylbutyric acid·potassium 3-hydroxy-3-methylbutyrate complex], for which the Solubility in series [1] is 225 g/100. In addition, the moisture content is 0.29% in series [2] (30 min); 0.59% in series [2] (1 h); 0.97% in series [2] (2 h); 1.80% in series [2] (4 h); 2.11% in series [2] (6 h); 2.35% in series [2] (7 h). Moreover, the moisture content in series [2] (11 h) is recorded as 2.85%; in series [2] (22 h) it was 4.98%.

Source of the values: patent publication US20260042727A1, “COMPLEX OF 3-HYDROXY-3-METHYLBUTYRIC ACID AND SALT THEREOF, AND PREPARATION METHOD THEREFOR” (NANJING NUTRABUILDING BIO-TECH CO., LTD., priority 2023, published 2026).
